Results published in patent US20240132484A1, “BROAD SPECTRUM ANTIVIRAL COMPOUNDS TARGETING THE SKI COMPLEX” (priority 2020, published 2024).

Tested on: Influenza virus
Assay: organism not typed
Assay type: cell-based, influenza A virus
Conditions: for Flu titer (pfu/ml): A549 cells; for Flu titer (pfu/ml) / Influenza virus titer, 10 μM / Influenza virus titer, 50 μM: plaque assay; for Avg PFU/ml: average of first and second experiment; for Influenza virus titer, 10 μM / Influenza virus titer, 50 μM: upper part of table (FIG. 5 data); for Avg: 1-24-20

Structure (SMILES)	Flu titer (pfu/ml) (1 μM compound)	Flu titer (pfu/ml) (10 μM compound)	Flu titer (pfu/ml) (50 μM compound)	first experiment (10 μM screen)	second experiment (10 μM screen)	Avg PFU/ml (10 μM screen)	Influenza virus titer, 10 μM	first experiment PFU/ml (50 μM screen)	second experiment PFU/ml (50 μM screen)	Avg PFU/ml (50 μM screen)	Influenza virus titer, 50 μM	Avg (10 μM screen)	Avg (50 μM screen)
CCN1CCN(CC(O)COc2cccc(CN(C)Cc3cc(C)no3)c2)CC1 (centres unmarked) [Compound 77921510, 1-(4-ethyl-1-piperazinyl)-3-[3-({methyl[(3-methyl-5-isoxazolyl)methyl]amino}methyl)phenoxy]-2-propanol]	72000 pfu/ml	90000 pfu/ml	26000 pfu/ml										
COc1ccc(CNC2Cc3ccccc3C2)c(OCC(O)CN2CCN(C)CC2)c1 (centres unmarked) [Compound 18-3]				12000 PFU/ml	1000 PFU/ml	6500 PFU/ml	12000 PFU/virus/ml	1100 PFU/ml	1700 PFU/ml	1400 PFU/ml	1100 PFU/virus/ml		
O=C(CCCc1ccccc1)Nc1cccc(N2CCC(NCCCn3nnc4ccccc43)CC2)c1 [Compound 84256405, N-[3-(4-{[3-(1H-1,2,3-benzotriazol-1-yl)propyl]amino}-1-piperidinyl)phenyl]-4-phenylbutanamide]	50000 pfu/ml	140000 pfu/ml	210000 pfu/ml										
CCN(CC)CCNCc1ccccc1OCC(O)CN1CCSCC1 (centres unmarked) [Compound 86006211, 1-[2-({[2-(diethylamino)ethyl]amino}methyl)phenoxy]-3-(4-thiomorpholinyl)-2-propanol]	70000 pfu/ml	60000 pfu/ml	12000 pfu/ml										
COc1ccc(CNCCCSC)c(OCC(O)CN2CCN(C)CC2)c1 (centres unmarked) [Compound 18-16]				210000 PFU/ml	18000 PFU/ml	114000 PFU/ml	21000 PFU/virus/ml	30000 PFU/ml	2300 PFU/ml	16150 PFU/ml	90000 PFU/virus/ml		
CN(CC(O)COc1ccccc1CNCCN1CCCC1)C1CCCCC1 (centres unmarked) [Compound 74597070, 1-[cyclohexyl(methyl)amino]-3-[2-({[2-(1-pyrrolidinyl)ethyl]amino}methyl)phenoxy]-2-propanol]	70000 pfu/ml	55000 pfu/ml	24000 pfu/ml										
COc1ccc(OC)c(Cc2nnc(CCC(=O)NC3CC(C)(C)CC(C)(C)C3)o2)c1 [Compound 35434810, 3-[5-(2,5-dimethoxybenzyl)-1,3,4-oxadiazol-2-yl]-N-(3,3,5,5-tetramethylcyclohexyl)propanamide]	80000 pfu/ml	80000 pfu/ml	130000 pfu/ml										
COc1ccc(CNCCc2ccccc2C)c(OCC(O)CN2CCN(C)CC2)c1 (centres unmarked) [Compound 18-2]				500 PFU/ml	1900 PFU/ml	1200 PFU/ml	500 PFU/virus/ml	1700 PFU/ml	100 PFU/ml	900 PFU/ml	1700 PFU/virus/ml		
COCCO[C@H]1[C@H](NC(=O)C(C)C)c2ccccc2C12CCN(C(=O)Cn1nc(C)cc1C)CC2 (relative stereo) [Compound 27046321, N-[(2R*,3R*)-1′-[(3,5-dimethyl-1H-pyrazol-1-yl)acetyl]-2-(2-methoxyethoxy)-2,3-dihydrospiro[indene-1,4′-piperidin]-3-yl]-2-methylpropanamide]	110000 pfu/ml	74000 pfu/ml	87000 pfu/ml										
CCc1ccc(OC(C)c2nnc(SCC(=O)Nc3nc(-c4ccccc4)c(C)s3)n2C)cc1 (centres unmarked) [Compound 7493781, 2-({5-[1-(4-ethylphenoxy)ethyl]-4-methyl-4H-1,2,4-triazol-3-yl}thio)-N-(5-methyl-4-phenyl-1,3-thiazol-2-yl)acetamide]	75000 pfu/ml	98000 pfu/ml	53000 pfu/ml										
COc1ccc(CNCCc2ccccc2F)c(OCC(O)CN2CCN(C)CC2)c1 (centres unmarked) [Compound 18, 1-[2-({[2-(2-fluorophenyl)ethyl]amino}methyl)-5-methoxyphenoxy]-3-(4-methyl-1-piperazinyl)-2-propanol]				2000 PFU/ml	1100 PFU/ml	1550 PFU/ml		1400 PFU/ml	300 PFU/ml	850 PFU/ml		1150 PFU/ml	400 PFU/ml
